In PMC7377239, “Cardiovascular Effects of Polychlorinated Biphenyls and Their Major Metabolites” (Environmental Health Perspectives, 2020) one finds minimal effective concentration and activity data, which are given here for three compounds.

Molecules are shown by their SMILES. Where two headings read alike, the source gives them in different places.

In assay [1] the test system is iCell endothelial cells (human iPSC-derived ECs). The experiment in a line: Tube formation (tubulogenesis) assay in iCell endothelial cells, 18 h. Format: cell-based. To be noted: Homo sapiens, Endothelial cell, 18 hr; for activity at 0.1 µM: 0.10 µM. The essentials:
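Tube formation was measured by calcein AM imaging after overnight compound exposure (37°C, 0.5% DMSO vehicle) of human iPSC-derived ECs, 7,500/well, on reduced-growth-factor Geltrex in starvation medium. Vehicle-normalized data fitted to four-parameter logistic; POD set at one vehicle SD; without response, 100 μM taken as NOAEL.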

The subject of the next assay is HUVECs. The assay is described as follows: Tube formation (tubulogenesis) assay in HUVECs, 18 h. Type of assay: cell-based, human. Particulars: Homo sapiens, HUVEC, 18 h, HUVEC; for activity at 0.1 µM: 0.10 µM. The essentials:
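HUVECs (passage 1–5) seeded on reduced-growth-factor basement membrane and exposed to compounds overnight at 37°C, 5% CO2, in 2× maintenance medium with 12.5 ng/mL VEGF; 0.5% DMSO vehicle. Calcein AM-stained tube networks imaged and analysed; vehicle-normalized readouts fit to four-parameter logistic, POD set at one SD of vehicle means.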

The mark [2] stands for this setting: endothelial cells (endo), tube formation mtl, read-out: POD endo.mtl.18hr.
[3] abbreviates: endothelial cells (endo), tube formation tlps, read-out: POD endo.tlps.18hr.
The mark [4] stands for this setting: endothelial cells (endo), tube formation tta, read-out: POD endo.tta.18hr.
Where [5] appears, read: endothelial cells (endo), tube formation ttl, read-out: POD endo.ttl.18hr.
Where [6] appears, read: tube formation mtl, read-out: POD huvec.mtl.18hr.
Setting [7] is: tube formation tlps, read-out: POD huvec.tlps.18hr.
[8] abbreviates: tube formation tta, read-out: POD huvec.tta.18hr.
Setting [9] is: tube formation ttl, read-out: POD huvec.ttl.18hr.
Setting [10] is: iPSC-EC tube formation, 0.00 µM control = 100.00, read-out: endo.mtl.18hr.
[11] abbreviates: iPSC-EC tube formation, 0.00 µM control = 100.00, read-out: endo.tlps.18hr.
Setting [12] is: iPSC-EC tube formation, 0.00 µM control = 100.00, read-out: endo.tta.18hr.
Setting [13] is: iPSC-EC tube formation, 0.00 µM control = 100.00, read-out: endo.ttl.18hr.
Where [14] appears, read: HUVECs, 0.00 µM = 100.00, read-out: huvec.mtl.18hr.
Setting [15] is: HUVECs, 0.00 µM = 100.00, read-out: huvec.tlps.18hr.
Setting [16] is: HUVECs, 0.00 µM = 100.00, read-out: huvec.tta.18hr.
Where [17] appears, read: HUVECs, 0.00 µM = 100.00, read-out: huvec.ttl.18hr.

As to `Oc1ccc(-c2cccc(Cl)c2)cc1Cl` [4-OH-PCB 11], the minimal effective concentration amounted to 17.7 µM in assay [1] (setting [2]); 52.5 µM in assay [1] (setting [3]); 15.8 µM in assay [1] (setting [4]); 16.1 µM in assay [1] (setting [5]); 7.09 µM in the assay on HUVECs (setting [6]); 35.3 µM in the assay on HUVECs (setting [7]). The minimal effective concentration amounted to 100 µM with HUVECs (setting [8]) and 4.15 µM in the assay with HUVECs (setting [9]).
For `Oc1cc(Cl)c(-c2cc(Cl)ccc2Cl)cc1Cl` [4-OH-PCB 52], the minimal effective concentration in assay [1] (setting [2]) came to 9.52 µM; in assay [1] (setting [3]), 8.32 µM; in assay [1] (setting [4]), 15 µM; in assay [1] (setting [5]), 15.2 µM; in the assay with HUVECs (setting [6]), 8.34 µM; with HUVECs (setting [7]) it was 4.13 µM. The minimal effective concentration came out at 51.8 µM with HUVECs (setting [8]) and 62.1 µM in the assay on HUVECs (setting [9]).
Turning to `COc1ccc(-c2cccc(Cl)c2)cc1Cl` [4-OMe PCB11], the activity at 0.01 µM in assay [1] (setting [10]) was 115%; in assay [1] (setting [11]), 108%; in assay [1] (setting [12]), 168%; in assay [1] (setting [13]) it was 169%; in the assay on HUVECs (setting [14]) it was 124%; in the assay on HUVECs (setting [15]) it was 137%. The activity at 0.01 µM is 110% in the assay on HUVECs (setting [16]) and 93.8% in the assay on HUVECs (setting [17]). The activity at 0.1 µM in assay [1] (setting [10]) was 114%; in assay [1] (setting [11]), 108%; in assay [1] (setting [12]), 134%; in assay [1] (setting [13]) it was 137%; in the assay on HUVECs (setting [14]) it was 107%; with HUVECs (setting [15]), 117%. Besides, the values for the activity at 0.1 µM with HUVECs (setting [16]) and in the assay on HUVECs (setting [17]) were 99.7% and 89.8%, respectively. Besides, the activity at 1 µM was 113% in assay [1] (setting [10]); 122% in assay [1] (setting [11]); 139% in assay [1] (setting [12]); 145% in assay [1] (setting [13]); 102% in the assay with HUVECs (setting [14]); 99.7% in the assay with HUVECs (setting [15]). The activity at 1 µM in the assay on HUVECs (setting [16]) came to 108%; in the assay on HUVECs (setting [17]), 99.4%. The activity at 10 µM in assay [1] (setting [10]) is 95.5%; in assay [1] (setting [11]) it was 82.3%; in assay [1] (setting [12]), 105%; in assay [1] (setting [13]) it was 106%; in the assay with HUVECs (setting [14]), 89.2%; in the assay with HUVECs (setting [15]) it was 97.9%. Further, the activity at 10 µM came out at 78.8% in the assay on HUVECs (setting [16]) and 67.3% in the assay with HUVECs (setting [17]). Besides, the activity at 100 µM in assay [1] (setting [10]) stood at 88.4%; in assay [1] (setting [11]) it was 63.4%; in assay [1] (setting [12]), 101%; in assay [1] (setting [13]), 100%; in the assay on HUVECs (setting [14]) it was 71%; in the assay on HUVECs (setting [15]), 60.6%. Further, the values for the activity at 100 µM with HUVECs (setting [16]) and with HUVECs (setting [17]) were 70.4% and 60.2%, respectively. Also, the minimal effective concentration in assay [1] (iPSC-EC tube formation, top concentration 100.00 µM, read-out: endo.mtl.18hr POD) was found to be 100 µM; in assay [1] (iPSC-EC tube formation, top concentration 100.00 µM, read-out: endo.tlps.18hr POD) it was 28.4 µM; in assay [1] (iPSC-EC tube formation, top concentration 100.00 µM, read-out: endo.tta.18hr POD), 0.00169 µM; in assay [1] (iPSC-EC tube formation, top concentration 100.00 µM, read-out: endo.ttl.18hr POD), 0.00197 µM; in the assay on HUVECs (HUVECs, top concentration 100.00 µM, read-out: huvec.mtl.18hr POD), 9.33 µM; in the assay on HUVECs (HUVECs, top concentration 100.00 µM, read-out: huvec.tlps.18hr POD) it was 25.8 µM. The minimal effective concentration in the assay on HUVECs (HUVECs, top concentration 100.00 µM, read-out: huvec.tta.18hr POD) came out at 100 µM; in the assay with HUVECs (HUVECs, top concentration 100.00 µM, read-out: huvec.ttl.18hr POD) it was 1.22 µM.
